Measurements reported in patent publication US5582828A, “Active fractions of Cordyceps sinensis and method of isolation thereof” (Lin; Ching-Yuang, priority 1995, dated 1996).

Columns and labels:
[1] = tested on: cardiovascular system; settings: in vivo; cited from earlier work
[2] = tested on: activated human mesangial cells; experiment: in vitro inhibition of activated (IL-1 and IL-6) human mesangial cells, [3H]-thymidine incorporation; assay type: cell-based; settings: Mesangial cell, n = 3, read-out: in vitro inhibitory action
From the text: In terms of activation of mesangial cells, [^3 H]-thymidine incorporation method is used as an index of DNA synthesis. Cultured human mesangial cells are first activated by exposing them to IL-1 and IL-6. The decrease in [^3 H]-thymidine incorporation after exposure to various fractions and compounds in Cordyceps sinensis was used as the in vitro screening method for identifying potential substances which are capable of inhibiting the proliferation of activated human mesangial cells.
Two methods of investigation (in vitro and in vivo) were adopted for the invention discussed in the patent application. One of these utilizes in vitro suppression of activated human mesangial cells as its model: the activity index used is the degree to which activation by interleukins 1 and 6 is suppressed by treatment with the fractions and purified compound H1-A of Cordyceps sinensis. Isotope-labeled [^3 H]-thymidine converted into [^3 H]-thymidine incorporation is the basis by which the degree of activation of mesangial cells is determined (please see Tables 1-1 to 1-5).

Compound | cardiovascular effect [1] | inhibition at 20 µM ([2]; Table 1-5, 20 μM) [%] | inhibition at 50 µM ([2]; Table 1-5, 50 μM) [%] | inhibition at 75 µM ([2]; Table 1-5, 75 μM) [%] | inhibition at 100 µM ([2]; Table 1-5, 100 μM) [%]
Nc1ncnc2c1ncn2[C@@H]1O[C@H](CO)[C@@H](O)[C@H]1O [Adenosine] | acts to relax vascular smooth muscle and causes vasodilatation | – | – | – | –
CC[C@H](C)C(=O)O[C@H]1C[C@@H](C)C=C2C=C[C@H](C)[C@H](CC[C@@H]3C[C@@H](O)CC(=O)O3)[C@H]21 [Lovastatin, lovastatin] | – | 19.8 ± 2 | 37.1 ± 4.3 | 60.9 ± 3.8 | 73 ± 4
